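Dose response: 5 concentrations. Exposure: 48 h. Format: 96-well plates. Endpoint: linear interpolation; highest concentration if not reached. GI50: concentration for 50% inhibition of growth.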 Active and inactive are the calls of the source. Rule as the data show it: active = GI50 up to about 1.1 µM and inactive = higher.

Consider one compound from ChEMBL document CHEMBL1201862, “PubChem BioAssay data set” (2004).

Test systems include HCT-15; SNB-19; SR; BT-549; SF-295; SK-MEL-2; MOLT-4; TK-10; UACC-62; OVCAR-3; OVCAR-8; ACHN; DLD-1; DU-145; SNB-75; SN12C; CAKI-1; NCI/ADR-RES; NCI-H460; IGROV-1.
Assay in all cases: NCI tumour cell line growth inhibition, 48 h

For `COc1cc2c(cc1OC)C(Cl)C(c1ccc(F)cc1)=C2Cl` (stereo not given), the GI50 in the experiment with HCT-15 is 12.9 µM; with SNB-19, 17.5 µM (inactive); in the experiment with SR, 3.01 µM (inactive); in the experiment on BT-549, 4.79 µM (inactive); in the experiment on SF-295 it was 14.4 µM (inactive); in the experiment with SK-MEL-2, 12.8 µM (inactive). Besides, the GI50 in the experiment with MOLT-4 is 5.41 µM (inactive); in the experiment on TK-10 it was 13.6 µM (inactive); in the experiment on UACC-62, 12.9 µM (inactive); in the experiment with OVCAR-3, 16.7 µM (inactive); in the experiment on OVCAR-8, 14.7 µM (inactive); in the experiment on ACHN, 13.2 µM (inactive). Further, the GI50 with DLD-1 was 16.9 µM (inactive); in the experiment on DU-145, 14.9 µM (inactive); with SNB-75, 14.6 µM (inactive); with SN12C it was 12.8 µM (inactive); with CAKI-1, 13.8 µM (inactive); with NCI/ADR-RES, 13.6 µM (inactive). For the same compound, the figures for the GI50 with NCI-H460 and in the experiment on IGROV-1 were 11.5 µM (inactive) and 17.4 µM (inactive), respectively.
